Experimental data as given in patent US20120041071A1, “[…] TREATING PAIN DUE TO OSTEOARTHRITIS” (Gruenenthal GmbH, priority 2007, published 2012).

How the values were obtained:
[1] = test system: pain; experiment: Clinical studies of pain-alleviating action compared with morphine; assay type: in vivo, human
[2] = test system: moderate to severe pain due to arthrosis of the knee; experiment: Randomised, placebo-controlled double-blind study, tapentadol PR vs oxycodone HCl CR, 28 days (Example 1); assay type: in vivo, human; conditions: compared with oxycodone
Description: The efficacy and tolerability of tapentadol with prolonged release (prolonged release (PR)) and oxycodone HCl with controlled release (controlled release (CR)) were compared with a placebo in patients with moderate to severe pain due to arthrosis of the knee.
Patients (N=670) were randomly selected and treated over 28 days twice with tapentadol PR 100 mg, with tapentadol PR 200 mg, with oxycodone HCl CR 20 mg or with a placebo. The dose was titrated at the start of the treatment. The primary efficacy endpoint was the average perception of pain during the preceding 24 hours at the time of the last medical examination (final visit) based on a visual analog 100-mm sale (VAS, 0 mm=no pain, 100 mm=worst pain imaginable)).
The study consisted of a 14-day, double-blind titration phase (3 days->11 days) followed by a 14-day double-blind maintenance phase (at the highest dose of the titration scheme in each case; see FIG. 1):
tapentadol PR 100 mg: 25 mg (bid)->50 mg (bid)->100 mg (bid);
tapentadol PR 200 mg: 100 mg (bid)->150 mg (bid)->200 mg (bid);
oxycodone HCl CR 20 mg: 10 mg (bid)->10 mg (bid)->20 mg (bid).

[3] = target: recombinantly produced μ-opioid receptor (Homo sapiens, UniProt P35372); experiment: Affinity to recombinantly produced μ-opioid receptor; assay type: binding; conditions: in humans; relative to morphine
recombinantly produced μ-opioid receptor, sequence (P35372 whole entry): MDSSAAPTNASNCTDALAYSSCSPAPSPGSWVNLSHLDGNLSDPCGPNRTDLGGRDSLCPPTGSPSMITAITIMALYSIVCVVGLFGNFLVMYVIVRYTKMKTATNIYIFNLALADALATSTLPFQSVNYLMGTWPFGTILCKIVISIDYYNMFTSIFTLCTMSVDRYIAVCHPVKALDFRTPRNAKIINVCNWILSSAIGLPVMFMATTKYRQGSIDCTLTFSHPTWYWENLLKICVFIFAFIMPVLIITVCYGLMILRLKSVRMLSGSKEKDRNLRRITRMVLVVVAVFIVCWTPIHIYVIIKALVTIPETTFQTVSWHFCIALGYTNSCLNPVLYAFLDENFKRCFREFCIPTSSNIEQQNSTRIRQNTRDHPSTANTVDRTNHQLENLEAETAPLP

Which results are given for `CC[C@@H](c1cccc(O)c1)[C@@H](C)CN(C)C` [tapentadol, (−)-(1R,2R)-3-(3-dimethylamino-1-ethyl-2-methyl-propyl)-phenol]?
pain-alleviating action relative to morphine [1]: two to three times less than that of morphine; tolerability with respect to gastrointestinal and central nervous system side effects [2]: better tolerated than oxycodone; affinity to the recombinantly produced μ-opioid receptor, times less than that of morphine [3]: 18 times
